Source: US20260083865A1, “PROSTATE SPECIFIC MEMBRANE ANTIGEN (PSMA) LIGANDS AND USE THEREOF” (priority 2022, published 2026)
Where two headings read alike, the source gives them in different places. Numbered stars: 1 amine (or outer) side, 2 acyl side, 3 side chain; on linkers, the order of the positions; unused ones are H or OH. Bridge positions count the residues as written; N and C are the ends. Square brackets hold non-standard residues; d marks the D form. Peptide text beside a SMILES is read from it. * marks the point of attachment. DOTA = O=C(O)CN1CCN(CC(=O)O)CCN(CC(=O)*)CCN(CC(=O)O)CC1; Phe(4-CF3) = N[C@@H](Cc1ccc(C(F)(F)F)cc1)C(=O)O; Phe(4-Cl) = N[C@@H](Cc1ccc(Cl)cc1)C(=O)O; Arg(Me2s) = CN=C(NC)NCCC[C@H](N)C(=O)O; d(αMeD) = C[C@@](N)(CC(=O)O)C(=O)O; X1 = O=C(CC1CCN([*:1])CC1)[*:2]; Lys(Me) = CNCCCC[C@H](N)C(=O)O; Tle = CC(C)(C)[C@H](N)C(=O)O; Nle = CCCC[C@H](N)C(=O)O; Aib = CC(C)(N)C(=O)O

Legend:
[1] = molecular target: T1, Fc-fusion protein of human PSMA (hPSMA-Fc) (Homo sapiens, UniProt Q04609); assay: Surface plasmon resonance assay (Biacore T200, single cycle kinetic); assay type: binding; details: hPSMA-Fc, 25° C., read-out: pKD CAT (converted)
T1 construct: purchased Acro Biosystems PSA-H5264
Procedure, shortened: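 KD, expressed as pKD, came from 1:1 Langmuir fits of reference- and buffer-blank-subtracted SPR data. The runs were single-cycle kinetics at 25° C in HBST/0.1% DMSO over human PSMA-Fc, captured to ~1000 RU on a peptide-coated CM5 surface and regenerated with 10 mM glycine pH 1.5.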

[2] = molecular target: T2, PSMA-expressing C4-2 cells (Homo sapiens, UniProt Q04609); assay: FACS binding assay (competition with 50 nM PSM-0183); details: read-out: pIC50 [C4-2] CAT (converted)
T2 construct: PSMA-expressing C4-2 cells (ATCC, Cat. No. CRL-3314) were cultured in RPMI-1640; host or cells: C4-2 cells
Procedure, shortened: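 Competition format: fluorescent tracer PSM-0183 (50 nM) displaced from PSMA on C4-2 cells by a test compound titration over 1 h at 4 °C. Bound tracer was quantified as flow-cytometric AF488 median fluorescence after washing. Four-parameter logistic fits of MFI data gave IC50 and pIC50.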

[3] = pKD category for PSMA SPR activity assay
[4] = pIC50 category of FACS binding, C4-2 cells

T1 sequence (Q04609 44-750 limits assumed): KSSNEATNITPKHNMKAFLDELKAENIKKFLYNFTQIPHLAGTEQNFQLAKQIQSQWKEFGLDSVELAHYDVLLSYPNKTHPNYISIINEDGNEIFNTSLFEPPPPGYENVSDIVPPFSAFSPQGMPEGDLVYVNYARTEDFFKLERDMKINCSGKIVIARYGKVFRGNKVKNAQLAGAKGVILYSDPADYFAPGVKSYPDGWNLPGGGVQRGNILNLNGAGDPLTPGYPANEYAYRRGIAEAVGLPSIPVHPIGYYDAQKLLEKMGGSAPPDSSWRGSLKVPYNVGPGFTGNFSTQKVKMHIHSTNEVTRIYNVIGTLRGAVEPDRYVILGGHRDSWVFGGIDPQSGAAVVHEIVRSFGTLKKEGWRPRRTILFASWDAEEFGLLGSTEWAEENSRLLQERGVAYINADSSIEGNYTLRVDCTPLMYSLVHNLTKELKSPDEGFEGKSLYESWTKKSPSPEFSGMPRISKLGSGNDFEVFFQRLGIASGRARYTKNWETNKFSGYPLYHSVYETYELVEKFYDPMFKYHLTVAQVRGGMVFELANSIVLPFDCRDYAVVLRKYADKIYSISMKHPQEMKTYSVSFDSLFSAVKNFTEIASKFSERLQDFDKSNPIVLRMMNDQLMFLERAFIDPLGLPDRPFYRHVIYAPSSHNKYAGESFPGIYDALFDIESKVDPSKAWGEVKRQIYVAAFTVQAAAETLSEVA
T2 sequence (Q04609 whole entry): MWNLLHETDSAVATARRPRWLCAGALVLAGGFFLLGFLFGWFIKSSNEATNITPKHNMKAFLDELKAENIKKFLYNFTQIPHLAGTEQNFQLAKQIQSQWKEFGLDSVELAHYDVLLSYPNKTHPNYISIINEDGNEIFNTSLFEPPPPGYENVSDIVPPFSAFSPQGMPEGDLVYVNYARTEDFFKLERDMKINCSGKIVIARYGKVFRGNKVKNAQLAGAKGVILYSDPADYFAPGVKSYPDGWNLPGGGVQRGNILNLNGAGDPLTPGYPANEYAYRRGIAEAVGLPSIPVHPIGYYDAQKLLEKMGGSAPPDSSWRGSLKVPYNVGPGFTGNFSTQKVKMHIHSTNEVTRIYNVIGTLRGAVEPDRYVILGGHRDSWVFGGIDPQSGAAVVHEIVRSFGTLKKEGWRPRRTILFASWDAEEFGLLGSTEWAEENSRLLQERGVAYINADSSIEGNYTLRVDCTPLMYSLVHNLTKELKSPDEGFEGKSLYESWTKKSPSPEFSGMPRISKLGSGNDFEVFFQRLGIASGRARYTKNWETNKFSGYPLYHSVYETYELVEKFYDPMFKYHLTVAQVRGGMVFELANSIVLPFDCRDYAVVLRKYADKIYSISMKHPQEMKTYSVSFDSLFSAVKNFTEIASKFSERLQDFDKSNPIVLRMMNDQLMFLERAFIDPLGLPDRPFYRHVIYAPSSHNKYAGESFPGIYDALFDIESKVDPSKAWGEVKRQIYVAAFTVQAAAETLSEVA

Row | Kd [1, 3] | IC50 [2, 4] | Kd ([1]; PSMA SPR assay, pKD category) | IC50 ([2]; FACS binding, PSMA-expressing C4-2 cells, pIC50 category) | SMILES
1 | < 12.6 nM | < 200 nM |  |  | CC(=O)N[C@H](C(=O)NC(C)(C)C(=O)N[C@@H](Cc1ccccc1)C(=O)N[C@H]1CSSC[C@@H](C(=O)N[C@H](C(=O)N[C@H](C(N)=O)[C@@H](C)O)C(C)(C)C)NC(=O)[C@H](CC(N)=O)NC(=O)[C@H](C)NC(=O)[C@H](CCCNC(=N)N)NC(=O)[C@H](CCCCN)NC1=O)[C@@H](C)O [PSM-0552, Ac-Thr-Aib-Phe-[Cys-Lys-Arg-Ala-Asn-Cys]-Tle-Thr-NH2] (Ac-T[Aib]FCKRANC[Tle]T-NH2; disulfide 4-9)
2 | 126 to 501 nM | 200 to 1260 nM |  |  | C[C@@H](O)[C@H](NC(=O)[C@@H](NC(=O)[C@@H]1CSSC[C@H](NC(=O)[C@H](Cc2ccc(Cl)cc2)NC(=O)[C@@](C)(CC(=O)O)NC(=O)[C@@H](NC(=O)CC2CCN(C(=O)CN3CCN(CC(=O)O)CCN(CC(=O)O)CCN(CC(=O)O)CC3)CC2)[C@@H](C)O)C(=O)N[C@@H](CCCCN)C(=O)N[C@@H](CCCNC(=N)N)C(=O)NC(C)(C)C(=O)N[C@@H](CC(N)=O)C(=O)N1)C(C)(C)C)C(N)=O [PSM-0366, DOTA-Cmp-Thr-amd-Pcf-[Cys-Lys-Arg-Aib-Asn-Cys]-Tle-Thr-NH2] ({DOTA}-[X1]T[d(αMeD)][Phe(4-Cl)]CKR[Aib]NC[Tle]T-NH2; disulfide 5-10)
3 |  |  | > 501 nM | > 3160 nM | CCCC[C@H](NC(=O)[C@@H]1CSSC[C@H](NC(=O)[C@H](Cc2ccccc2)NC(=O)[C@H](C)NC(=O)[C@@H](NC(C)=O)[C@@H](C)O)C(=O)N[C@@H](CCCCN)C(=O)N[C@@H](CCCNC(=N)N)C(=O)N[C@@H](C)C(=O)N2CCC[C@H]2C(=O)N1)C(=O)N[C@H](C(=O)N[C@@H](CC(=O)O)C(N)=O)[C@@H](C)O [PSM-0286, Ac-Thr-Ala-Phe-[Cys-Lys-Arg-Ala-Pro-Cys]-Nle-Thr-Asp-NH2] (Ac-TAFCKRAPC[Nle]TD-NH2; disulfide 4-9)
4 | < 12.6 nM | < 200 nM |  |  | C/N=C(/NC)NCCC[C@@H]1NC(=O)[C@H](CCCCNC)NC(=O)[C@@H](NC(=O)[C@H](Cc2ccc(Cl)cc2)NC(=O)C(C)(C)NC(=O)[C@@H](NC(=O)CC2CCN(C(=O)CN3CCN(CC(=O)O)CCN(CC(=O)O)CCN(CC(=O)O)CC3)CC2)[C@@H](C)O)CSSC[C@@H](C(=O)N[C@H](C(=O)N[C@H](C(N)=O)[C@@H](C)O)C(C)(C)C)NC(=O)[C@H](CC(N)=O)NC(=O)C(C)(C)NC1=O [PSM-0499, DOTA-Cmp-Thr-Aib-Pcf-[Cys-Lys(Me)-Egd-Aib-Asn-Cys]-Tle-Thr-NH2] ({DOTA}-[X1]T[Aib][Phe(4-Cl)]C[Lys(Me)][Arg(Me2s)][Aib]NC[Tle]T-NH2; disulfide 5-10)
5 | < 12.6 nM | < 200 nM |  |  | CC(=O)N[C@H](C(=O)NC(C)(C)C(=O)N[C@@H](Cc1ccc(C(F)(F)F)cc1)C(=O)N[C@H]1CSSC[C@@H](C(=O)N[C@H](C(=O)N[C@H](C(N)=O)[C@@H](C)O)C(C)(C)C)NC(=O)[C@H](CC(N)=O)NC(=O)C(C)(C)NC(=O)[C@H](CCCNC(=N)N)NC(=O)[C@H](CCCCN)NC1=O)[C@@H](C)O [PSM-0550, Ac-Thr-Aib-Ptf-[Cys-Lys-Arg-Aib-Asn-Cys]-Tle-Thr-NH2] (Ac-T[Aib][Phe(4-CF3)]CKR[Aib]NC[Tle]T-NH2; disulfide 4-9)
6 | 12.6 to 126 nM | < 200 nM |  |  | CC(=O)N[C@H](C(=O)NC(C)(C)C(=O)N[C@@H](Cc1ccccc1)C(=O)N[C@H]1CSSC[C@@H](C(=O)N[C@H](C(=O)N[C@H](C(=O)N[C@@H](CC(=O)O)C(N)=O)[C@@H](C)O)C(C)(C)C)NC(=O)[C@H](CC(N)=O)NC(=O)[C@H](CCCCNC(=O)CN2CCN(CC(=O)O)CCN(CC(=O)O)CCN(CC(=O)O)CC2)NC(=O)[C@H](CCCNC(=N)N)NC(=O)[C@H](CCCCN)NC1=O)[C@@H](C)O [PSM-0397, Ac-Thr-Aib-Phe-[Cys-Lys-Arg-Lys(DOTA)-Asn-Cys]-Tle-Thr-Asp-NH2] (Ac-T[Aib]FCKRK(DOTA)NC[Tle]TD-NH2; disulfide 4-9)
